Data from US20220400669A1, “COMPOUNDS AND METHODS FOR PROMOTING PLANT GROWTH” (King Abdullah University of Science and Technology, priority 2019, published 2022).

What was measured:
Type in all cases: in vivo
[1] = tested on: strigolactones (4-deoxyorobanchol, orobanchol) content; test: LC-MS/MS quantification of SLs in rice root tissues; conditions: Pi-starved WT rice, 5 μM, 6 hours
Experimental: For SL analysis, one-week-old seedlings were transferred into 50 ml falcon tubes (two seedlings per tube), containing half-strength Hoagland nutrient solution with K2HPO4.2H2O (+Pi), and grown in the biochamber for one week. Rice seedlings were then subjected to phosphate deficiency (−Pi) for another one week. On the day of root exudates collection, rice seedlings were first treated with 5 μM Zaxinone, or MZ compounds for 6 h, and then root exudates and root tissues were collected from each tube for LC-MS/MS analysis and Striga bioassays.
For the quantification of SLs in rice root, plant tissue material was lyophilized and grinded. Approximately 20 mg root tissue spiked with 0.672 ng of D6-5-deoxystrigol was extracted with 2 ml of ethyl acetate in an ultrasound bath (Branson 3510 ultrasonic bath) for 15 min, followed by centrifugation for 8 min at 3800 rpm at 4° C. The supernatant was collected and the pellet was re-extracted with 2 ml of ethyl acetate. Then the two supernatants were combined and dried under vacuum. The residue was dissolved in 100 μl of ethyl acetate and 2 ml of hexane. The resulting extract solution was loaded on a Silica gel SPE column (500 mg/3 ml) preconditioned with 3 ml of ethyl acetate and 3 ml of hexane. […] 4-deoxyorobanchol was analyzed by using HPLC-Q-Trap-MS/MS with MRM mode. […]

wild-type rice plants = test: Rice phenotypes in soil (rhizotron system); conditions: 5 μM
Experimental: For testing MZ3 and MZ5 on rice phenotypes in the rhizotron system (48 cm×24 cm×5 cm), three-day-old seedlings were grown in soil with half-strength modified Hoagland nutrient solution containing 0.4 mM K2HPO4.2H2O (+Pi) and 5 μM zaxinone for two weeks. The solution was changed every other day, adding the chemical at each renewal. To increase the compounds stability, 1 μl/ml emulsifier (cyclohexanone+Atlas […] kindly provided by a person […] of CRODA, Gouda; The Netherlands) was added into Hoagland nutrient solution. Root surface area was analyzed with the ImageJ software.

[2] = tested on: tomato plant (c.v. Money maker); test: Foliar application on tomato plants; conditions: 5 μM foliar application
Experimental: Tomato seeds (c.v. Money maker) were sterilized and pre-germinated on moistened filter paper at 22° C. for 4-5 days, transferred to light for 3-4 days or direct sowed of seeds from fresh tomatoes in soils at 25° C. Most uniform seedlings (10 days old) were selected and transferred to pots. After one week of the transfer, 5 μM compounds were used for foliar application. Each compound was applied three times in a week up to four weeks: 20 mL per pot (spray as runoff) in first 3 weeks, and 40 mL per pot in last 4th week. The plants were grown under normal growth condition (27° C., 70% RH).

Striga hermonthica = Striga hermonthica infection of rice in pots; conditions: 5 μM, rice cv IAC-165 in pots with Striga infested soil (FIG. 13)
Experimental: Pots experiment was conducted and slightly adapted from the protocol as described previously About 20 mg (ca 8000) Striga seeds were thoroughly mixed in 1.5 L sand and soil mixture (1:1) and added in 3 L perforated plastic pot containing 0.5 L clean soil in the bottom. The pots were kept in greenhouse-controlled conditions at 35° C. under moisture to preconditioned Striga seeds for 10 days. On 11th day, one week old five rice seedlings (cv IAC165) were planted in each pot. After three days of rice planting, each pot was first irrigated with 250 ml phosphorus deficient Hoaglands nutrient solution and after four hours of irrigation 25 ml formulated MZ3, MZ5 and Zaxinone (100 μM) were sprayed. Next day, each pot was again supplied with 250 ml nutrient solution to make the final concentration of each compound to 5 μM and to move the compound to rice seedlings. Pots with and without Striga seeds were kept as the negative and positive control. Each compound was applied twice in a week up to four weeks. The rice plants were grown under normal growth condition (30° C., 70% RH) for eight weeks. The number of emerged Striga plants in each pot were counted.

[3] = LC-MS analysis of rice plants fed with the mimics; conditions: data not shown

COc1ccc(Oc2cccc(/C=C/C(C)=O)c2)cc1 [MZ3, (E)-4-(3-(4-methoxyphenoxy)phenyl)but-3-en-2-one]
Oro content in roots ([1]; control 0.6): 0.1 pgmg-1dry-root-weight
4DO content in roots ([1]; control 2.5): 0.5 pgmg-1dry-root-weight
root surface area and root numbers of WT plants compared with zaxinone treatment (wild-type rice plants): increased more
plant height, branch, flowers and fruit numbers compared to zaxinone [2]: strongly increased
reduction of the number of emerging Striga plants compared to the untreated control (Striga hermonthica): 71%
presence in shoots of rice plants fed through roots [3]: detected
